The results in this text go back to article PMC3412276 (Molecular Microbiology, 2012).

For the assay, the target named is T1, TbPMI (phosphomannose isomerase) (Trypanosoma brucei, UniProt Q381V7).
T1 construct: gene Tb11.01.6410
T1 sequence (Q381V7 1-409): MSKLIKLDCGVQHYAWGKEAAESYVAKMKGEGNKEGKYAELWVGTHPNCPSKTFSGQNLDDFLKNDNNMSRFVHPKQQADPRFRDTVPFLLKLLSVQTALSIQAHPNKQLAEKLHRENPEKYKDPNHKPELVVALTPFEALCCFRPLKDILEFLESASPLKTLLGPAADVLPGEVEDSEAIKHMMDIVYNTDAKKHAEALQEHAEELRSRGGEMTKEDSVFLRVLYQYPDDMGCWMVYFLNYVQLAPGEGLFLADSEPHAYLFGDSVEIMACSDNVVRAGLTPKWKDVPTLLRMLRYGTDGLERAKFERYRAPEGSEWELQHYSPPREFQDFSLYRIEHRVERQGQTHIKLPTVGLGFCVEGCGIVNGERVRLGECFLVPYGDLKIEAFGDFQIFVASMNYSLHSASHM
The assay can be described thus: HPAEC with pulsed amperiometric detection. To be noted: 0.25 mM sugar-6P, 2 mM bis-tris propane pH 7.3, 2.5 mM MgCl2, 37°C, 15 min. Type of assay: biochemical.

Regarding `O=P(O)(O)OC[C@H]1OC(O)(CO)[C@@H](O)[C@@H]1O` (some centres unmarked) [Fru-6P], the “HPAEC with pulsed amperiometric detection” value (converted to Man-6P) was “to be able to convert Man-6P to Fru-6P and Fru-6P to Man-6P, as expected”. For `O=P(O)(O)OC[C@H]1OC(O)[C@@H](O)[C@@H](O)[C@@H]1O` (some centres unmarked) [Man-6P], the “HPAEC with pulsed amperiometric detection” value (converted to Fru-6P) is “to be able to convert Man-6P to Fru-6P and Fru-6P to Man-6P, as expected”.
